In patent US20110053947A1, “Arylchalcogenoarylalkyl-substituted imidazolidine-2,4-diones, process for preparation thereof, medicaments comprising these compounds and use thereof” (SANOFI-AVENTIS, priority 2008, published 2011):
Like-named read-outs stand apart in the source and are kept apart here.

Experiments:
[1] = biological target: T1, cannabinoid CB1 receptor (CB1) (Mus musculus, UniProt P47746); assay: Antagonization of CB1-mediated hypothermia; assay type: in vivo; details: female NMRI mice; 1.25 mg/kg intraperitoneally; within 30 min
T1 construct: from tissue; host or cells: whole animal (female NMRI mice)
Method: “Antagonization of CB 1-mediated Hypothermia”
The test is used to measure the potency of cannabinoid CB1 receptor (CB1) antagonists. What is measured is the extent to which the CB1 antagonists to be tested are capable of preventing or of antagonizing hypothermia induced by a CB1 agonist.
Female NMRI mice, 25-35 g in weight, are used. The mice are accustomed to the housing conditions for at least one week.
At time 0 min, the animals are treated orally, intravenously or intraperitoneally with the CB1 antagonist to be tested. 30 min later, the CB1 agonist CP55.940, 1.25 mg/kg, is administered to the mice intraperitoneally. This brings about a fall in the body temperature by 5-6° C. within 30 min. The body temperature is measured rectally for the first time 30 min before the test substance administration and then every 30 min after this administration, if appropriate immediately before a substance administration, over 4 hours.
The potency of the test substances is reported as the percentage decrease in the area under the temperature-time curve which is formed firstly by the average basal temperature, and secondly by the temperature-time curve, of the animals treated exclusively with the CB1 antagonist.

[2] = biological target: T2, CHO-K1/cannabinoid CB1 (hCB1R) (Homo sapiens, UniProt P21554); assay: Binding to the CB1 receptor ([3H]-SR141716A displacement)
T2 construct: expressed in transfected cells; host or cells: CHO-K1
Method: Binding to the CB 1 Receptor:
Test compounds: The compounds (3 μl, 10 mM, 100% DMSO), pipetted into 96-well PP microtiter plates, were diluted with 27 μl of 100% DMSO (dimethyl sulfoxide). Proceeding from this solution, further 3-fold dilution steps were undertaken by transferring 10 μl in each case to a new PP microtiter plate and adding a further 20 μl of 100% DMSO. In each case 6 μA of these solutions were transferred into new 96-well PP microtiter plates and made up with 144 μl of assay buffer. The end concentrations ranged from 10 μM to 0.005 μM. Negative control: AM 251, dissolved in assay buffer with 1% DMSO, was added to the dilution series in the microtiter plates as a control. The end concentration was 1 μM. Blank control: assay buffer with 1% DMSO was added to the dilution series of the microtiter plates as a blank control.
Summary of the Assay Parameters:
The values were calculated using the corrected raw data.
The values reported were obtained as average values of a double determination. The IC50 values were calculated from the measurements with the program Xlfit, formula 205. Ki values were obtained from the IC50 and Kd values utilizing the Cheng-Prusoff equation: […]
Literature: Cheng, Y.-C., and Prusoff, W. H. (1973) Biochem. Pharmacol 22, 3099-3108 Results: Ki values of example compounds; Table 2: […]

[3] = biological target: T3, cannabinoid 2 receptor (hCB2R) (Homo sapiens, UniProt P34972); assay: In vitro functional assay with recombinant cells (FLIPR), CB2; assay type: cell-based
T3 construct: expressed in transfected cells; host or cells: HEK293
Method: (§1) In vitro functional assays with recombinant cells:
(§2) Function-testing assays were performed by means of the FLIPR technique (“Fluorometric Imaging Plate Reader”, Molecular Devices Corp.).
(§3) To this end, ligand-induced changes in the intracellular concentration of Ca^2+ in recombinant HEK293 cells, which expressed both a cannabinoid receptor (CB1 or CB2) and G-protein Galphal6, were determined. For the studies, cells were sown into 96-well microtiter plates (60 000 cells/well) and left to grow overnight. The medium was removed and the cells were incubated in buffer which contained the fluorescent dye Fluo-4. After this loading with dye, the cells were washed, test substance was added dissolved in buffer, the mixture was incubated for 20 minutes, a known cannabinoid receptor agonist as a reference agonist was added in buffer and, finally, the changes in the intracellular Ca^2+ concentration were measured in the FLIPR unit.

[4] = biological target: T4, cannabinoid 1 receptor (hCB1R) (Homo sapiens, UniProt P21554); assay: In vitro functional assay with recombinant cells (FLIPR), CB1; assay type: cell-based; details: intracellular Ca2+ change after reference agonist, 20 min preincubation
T4 construct: expressed in transfected cells; host or cells: HEK293
Method: as §1, §2, §3
Results were presented as the percentage change relative to the control (0%: analogous experiment without test substance and without reference agonist, i.e. only with buffer; 100%: analogous experiment without test substance, but with reference agonist in excess), and used to calculate dose/action curves, and IC50 values were determined.
The values of the functional assay compared to the cannabinoid 1 receptor including illustrative selectivities compared to the cannabinoid 2 receptor can be taken from table 1 which follows.

[5] = recombinant HEK293 cells expressing CB1 and G-protein, read-out: hCB1R: FLIPR, IC50

T3 sequence (P34972 whole entry): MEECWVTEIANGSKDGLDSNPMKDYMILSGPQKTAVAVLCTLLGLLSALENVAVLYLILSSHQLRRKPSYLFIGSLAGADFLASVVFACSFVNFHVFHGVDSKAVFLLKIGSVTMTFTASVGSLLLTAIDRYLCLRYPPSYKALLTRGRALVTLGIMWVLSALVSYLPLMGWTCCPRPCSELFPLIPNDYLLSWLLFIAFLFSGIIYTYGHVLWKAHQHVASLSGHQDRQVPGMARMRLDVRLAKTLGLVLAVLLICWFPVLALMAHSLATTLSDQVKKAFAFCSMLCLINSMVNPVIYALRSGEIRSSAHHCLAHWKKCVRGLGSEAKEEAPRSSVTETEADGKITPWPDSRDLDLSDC
T4 sequence (P21554 whole entry): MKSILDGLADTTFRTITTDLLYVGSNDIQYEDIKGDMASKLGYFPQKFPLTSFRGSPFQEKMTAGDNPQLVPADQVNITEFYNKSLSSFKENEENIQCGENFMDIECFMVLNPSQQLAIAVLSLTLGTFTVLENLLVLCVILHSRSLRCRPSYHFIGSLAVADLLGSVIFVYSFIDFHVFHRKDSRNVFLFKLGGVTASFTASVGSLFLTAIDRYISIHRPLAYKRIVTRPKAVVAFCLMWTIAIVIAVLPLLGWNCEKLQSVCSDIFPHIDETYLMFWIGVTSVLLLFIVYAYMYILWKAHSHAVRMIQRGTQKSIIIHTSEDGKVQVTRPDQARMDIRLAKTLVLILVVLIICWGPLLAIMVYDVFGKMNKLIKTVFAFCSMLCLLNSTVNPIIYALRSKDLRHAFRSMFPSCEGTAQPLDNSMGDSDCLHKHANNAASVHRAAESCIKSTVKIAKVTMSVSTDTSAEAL
T2 sequence (P21554 whole entry): as above
T1 sequence (P47746 whole entry): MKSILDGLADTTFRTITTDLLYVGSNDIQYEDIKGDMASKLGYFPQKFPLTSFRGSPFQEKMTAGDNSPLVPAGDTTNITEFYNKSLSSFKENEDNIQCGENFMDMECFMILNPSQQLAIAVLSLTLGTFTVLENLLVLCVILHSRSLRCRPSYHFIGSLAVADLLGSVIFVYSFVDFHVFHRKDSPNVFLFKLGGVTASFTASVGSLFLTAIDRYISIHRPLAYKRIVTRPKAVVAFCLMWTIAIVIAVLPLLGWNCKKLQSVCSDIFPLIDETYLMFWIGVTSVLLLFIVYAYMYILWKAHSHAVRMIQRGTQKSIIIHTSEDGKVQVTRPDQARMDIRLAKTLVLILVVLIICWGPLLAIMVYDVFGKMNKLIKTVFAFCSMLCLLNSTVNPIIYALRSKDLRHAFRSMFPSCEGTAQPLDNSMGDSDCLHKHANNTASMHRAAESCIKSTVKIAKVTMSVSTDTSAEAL

Question: How did the “fall in the body temperature” value [1] turn out when CCCCCCC(C)(C)c1ccc([C@@H]2C[C@H](O)CC[C@H]2CCCO)c(O)c1 [CP55.940] was run?
Answer: 5-6 °C

Question: How did the Ki ([2]; [3H]-SR141716A 0.5 nM, Ki from IC50 and Kd by Cheng-Prusoff, average of double determination, read-out: hCB1R, Bindung Ki) turn out when CC1(C)C(=O)N(c2ccc(C#N)c(C(F)(F)F)c2)C(=O)N1Cc1ccccc1NC(=O)Nc1ccc(S(N)(=O)=O)cc1 [Example 1, 4-(3-{2-[3-(4-Cyano-3-trifluoromethylphenyl)-5,5-dimethyl-2,4-dioxo-imidazolidin-1-ylmethyl]phenyl}ureido)benzenesulfonamide] was run?
Answer: 20 nM

Question: And the IC50 [3]?
Answer: > 10000 nM

Question: What about the IC50 [4, 5] of the same compound?
Answer: 24 nM

Question: For COC(=O)c1ccc(NC(=O)Nc2ccccc2CN2C(=O)N(c3ccc(C#N)c(C(F)(F)F)c3)C(=O)C2(C)C)cc1 [Example 3, methyl 4-(3-{2-[3-(4-cyano-3-trifluoromethylphenyl)-5,5-dimethyl-2,4-dioxoimidazolidin-1-ylmethyl]phenyl}ureido)benzoate], which Ki [2] is on record?
Answer: 11 nM

Question: What about the IC50 ([3]; recombinant HEK293 cells expressing CB2 and G-protein, intracellular Ca2+ change after reference agonist, 20 min preincubation, read-out: hCB2R: FLIPR, IC50) of the same compound?
Answer: > 10000 nM

Question: What about the IC50 ([4]; hCB1R: FLIPR, IC50, recombinant HEK293 cells expressing CB1 and G-protein) of the same compound?
Answer: 19 nM

Question: What does the source list for CCOc1ccc(NC(=O)Nc2ccccc2CN2C(=O)N(c3ccc(C#N)c(C(F)(F)F)c3)C(=O)C2(C)C)cc1 [Example 10, 1-{2-[3-(4-cyano-3-trifluoromethylphenyl)-5,5-dimethyl-2,4-dioxoimidazolidin-1-ylmethyl]phenyl}-3-(4-ethoxyphenyl)urea]?
Answer: IC50 [3]: > 10000 nM; IC50 [4, 5]: 53 nM
